# Data taken from patent US20080176952A1, “Management of Ophthalmologic Disorders, Including Macular Degeneration” (priority 2004, published 2008).
# Legend:
# [1] = system: 11-cis-retinol biosynthesis (IMH activity) in retinal pigment epithelial membrane system; assay: Effect on 11-cis-retinol biosynthesis (IMH activity) in RPE membranes; assay type: biochemical, bovine; conditions: membranes pre-incubated with vitamin A before inhibitor; 60 μM; data not shown
# Procedure: A control reaction mixture without any inhibitor was also incubated at room temperature for 15 min. At the end of the min incubation, all-trans-retinol [11-12-^3H2] (0.2 μM) was added to the reaction mixtures (100 mM Tris pH 8.0, […] of RPE protein, 0.2% BSA 100 μM of DPPC, 1 mM of DTT and 0.2 μM all-trans-retinol [11-12-^3H2]) and incubated at room temperature for 30 min. At the end of this 30 minutes of incubation, an aliquot of the reactions were quenched to verify the equal addition of all-trans-retinol [11,12-^3H2] and the effect of these inhibitors on LRAT. After this the control reaction mixture was incubated with atRA (60 & 6 μM), 13cRA (60 & 6 μM) or 4-HPR (60 & 6 μM) for 15 min. Now all the reaction mixtures were incubated with 30 μM of apo-rCRALBP (100 mM Tris pH 8.0, 7.7 μg of RPE protein, 0.2% BSA 100 μM of DPPC, 1 mM of DTT 30 μM apo-rCRALBP and 0.2 μM all-trans-retinol [11-12-^3H2]) at 37° C. for 30 minutes. At the end of this incubation period the 200 μL reaction mixture was quenched by the addition of 750 μL ice cold methanol after which 100 μL of 1M sodium chloride solution was added, and 500 μl hexane (containing butylated hydroxy toluene at 1 mg/mL) was added to effect extraction of the retinoids. The retinoids were analyzed as previously described (27). The amount of 11-cis-retinol formed was used as a measurement of IMH activity. All experiments were performed in triplicate and the average values of these measurements were used for analysis.
# A control reaction mixture without any inhibitor was also incubated at room temperature for 15 min. At the end of the min incubation, all-trans-retinol [11-12-^3H2] (0.2 μM) was added to the reaction mixtures (100 mM Tris pH 8.0, 76.7 μg of RPE protein, 0.2% BSA 100 μM of DPPC, 1 mM of DTT and 0.2 μM all-trans-retinol [11-12-^3H2]) and incubated at room temperature for 30 min. […] The retinoids were analyzed as previously described (27). […]
# RPE65 = molecular target: T1, RPE65 (Bos taurus, UniProt Q28175); assay: Competitive binding with 3H-all-trans-retinyl palmitate to RPE65 (buffer exchange); parameters: species or system bovine; conditions: 6 μM retinoic acid, 0.5 μM RPE65, 0.65 μM 3H-all-trans-retinyl palmitate
# T1 construct: Frozen bovine eyecups devoid of retinas were purchased from W. L. Lawson Co; tissue W. L. Lawson Co; host or cells: bovine eyecups (retinal pigment epithelium)
# Procedure: Competitive binding of retinoic acid (all-trans and 13-cis) and all-trans-retinyl palmitate to RPE65: Buffer exchange experiments were performed to investigate the abilities of the retinoic acids (all-trans and 13-cis) to displace all-trans-retinyl palmitate binding from RPE65. To RPE65 (0.5 μM) (PBS, 1% CHAPS, pH 7.4), was added 6 μM of retinoic acid (all-trans and 13-cis) and incubated at 4° C. for 30 min. A control sample of RPE65 was incubated minus retinoic acids at 4° C. for 30 min. At the end of this incubation, the samples were incubated for 30 min with ^3H-all-trans-retinyl palmitate (0.65 ∥M, 20.31. Ci/mmol). At the end of this incubation period the buffer (PBS-1% CHAPS) was exchanged 10^4 fold with a Centricon 30K MWCO filter. The sample retained and the buffer flow through were counted on a liquid scintillation counter, to measure the amount of ^3H-all-trans-retinyl palmitate retained.
# Competitive binding of retinoic acid (all-trans and 13-cis) and all-trans-retinyl palmitate to RPE65: Buffer exchange experiments were performed to investigate the abilities of the retinoic acids (all-trans and 13-cis) to displace all-trans-retinyl palmitate binding from RPE65. […] The sample retained and the buffer flow through were counted on a liquid scintillation counter, to measure the amount of ^3H-all-trans-retinyl palmitate retained. […]
# tLRAT [2] = molecular target: T2, tLRAT (Homo sapiens, UniProt O95237); conditions: comparison value; no observable turnover under the same conditions; read-out: KM as acyl donor in the LRAT reaction; cited from earlier work
# T2 construct: This form of LRAT has the two N and C-terminal transmembrane domains of LRAT truncated; made in house
# T2 sequence (O95237 31-196 limits assumed): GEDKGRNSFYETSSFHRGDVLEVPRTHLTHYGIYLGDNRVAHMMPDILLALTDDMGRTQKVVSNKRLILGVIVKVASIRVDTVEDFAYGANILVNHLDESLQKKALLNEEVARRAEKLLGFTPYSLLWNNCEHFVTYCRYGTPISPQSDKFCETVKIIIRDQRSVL
# tLRAT [3] = molecular target: T2, tLRAT; assay: Isomeric preference of the mRPE65/tLRAT mediated esterification of retinols; assay type: biochemical; conditions: compared to vitamin A; 0.02 μM mRPE65, 5 μM tLRAT
# Procedure: Isomeric preference of the mRPE65/tLRAT mediated esterification of retinols: The effect of mRPE65 on the processing of 11-cis- and all-trans-retinols was determined by monitoring the formation of tLRAT catalyzed retinyl esters from added all-trans-retinol [11,12-^3H2], 11-cis-retinol [15-^3H] and mRPE65. The reaction mixture (volume 0.1 mL) contains 100 mM Tris (pH 8.4), 5 μM of tLRAT 0.3% CHAPS, 1 mM dithiothreitol and 0.2 μM of all-trans-retinol [11,12-^3H2] or 11-cis-retinol [15-^3H] and mRPE65 ([…] 200 μM/0.4% DPPC/BSA was incubated for 10 min at room temperature. After 10 min the reaction was quenched with 500 μL methanol, 100 μL of water and 500 μL of hexane. The amount of retinyl palmitate formed, as determined by normal phase-HPLC, was used as a measure of activity. Each experiment was done in triplicate, and the data points used are an average of these three points. The standard error was presented as error bars.
# 11-cis-retinol, the direct product of IMH action, is also esterified (FIG. 12A). […] (2) all-trans-retinol (2 μM) and mRPE65 (0.02 μM). (3) 11-cis-retinol (2 μM) and DPPC/BSA (250 μM/0.4%). (4) all-trans-retinol (2 μM) and DPPC/BSA (250 μM/0.4%). All reaction mixtures contain 100 mM Tris pH 8.4, 1 mM dithiothreitol, 1 mM EDTA and 5 μM tLRAT.
# [4] = system: mRPE65 / IMH activity in RPE membranes; assay: Effect of 11-cis-retinol mediated depalmitoylation of mRPE65 on generation of 11-cis-retinol in RPE membranes; assay type: biochemical, bovine; conditions: RPE membranes pretreated with 10 μM, then UV and vitamin A
# Procedure: Effect of 11-cis-retinol mediated depalmitoylation of mRPE65 on the generation of 11-cis-retinol: To 1 mL of buffered suspension of RPE membranes (100 mM Tris pH 8.0, 80 μg of protein) was added 10 μM of 11-cis-retinol and incubated at room temp. for 45 min. A control reaction mixture without 11-cis-retinol was also incubated at room temperature for 45 min. At the end of the 45 min incubation, the reaction mixtures were exposed to UV light (354 nm) for 10 min to destroy the 11-cis-retinoids. All-trains-retinol [11-12-^3H2] (0.1 μM) was then added to the reaction mixtures (100 mM Tris pH 8.0, 80 μg of RPE protein 5% BSA and 0.1 μM all-trans-retinol [11-12-^3H2], and incubated at 37° C. 100 μL aliquot of the reactions were quenched after 0, 5, 10, 15, 20, 30, 45, 60, 90, 120 and 150 min by the addition of 500 μL methanol after which 100 μL of H2O was added, and 500 μl hexane (containing butylated hydroxy toluene at 1 mg/mL) was added to effect extraction of the retinoids. The retinoids were analyzed as previously described (Winston and Rando 1998). The amount of 11-cis-retinol formed was used as a measurement of IMH activity. All experiments were performed in triplicate and the average values of these measurements were used for analysis. […]
# T1 sequence (Q28175 whole entry): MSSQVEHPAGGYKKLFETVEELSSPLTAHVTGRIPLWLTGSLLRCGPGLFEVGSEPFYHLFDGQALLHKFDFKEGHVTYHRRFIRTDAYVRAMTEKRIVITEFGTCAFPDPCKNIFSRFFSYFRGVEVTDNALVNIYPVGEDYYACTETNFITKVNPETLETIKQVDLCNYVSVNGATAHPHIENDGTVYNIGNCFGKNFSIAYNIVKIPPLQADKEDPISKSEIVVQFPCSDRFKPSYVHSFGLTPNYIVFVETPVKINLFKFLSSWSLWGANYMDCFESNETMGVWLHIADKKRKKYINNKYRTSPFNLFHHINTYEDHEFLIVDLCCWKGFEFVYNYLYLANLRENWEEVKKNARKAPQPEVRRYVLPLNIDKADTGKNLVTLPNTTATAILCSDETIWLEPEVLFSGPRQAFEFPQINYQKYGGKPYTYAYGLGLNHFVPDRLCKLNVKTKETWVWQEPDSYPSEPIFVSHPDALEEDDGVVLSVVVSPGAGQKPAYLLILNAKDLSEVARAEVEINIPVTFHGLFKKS
smiles,measurement,setting,value
CC1=C(/C=C/C(C)=C/C=C/C(C)=C/C(=O)O)C(C)(C)CCC1 [all-trans-retinoic acid],inhibition of 11-cis-retinol formation,[1],not susceptible to inhibition
same,competition with 3H-all-trans-retinyl palmitate binding to RPE65,RPE65,competes with the binding
"CCCCCCCCCCCCCCCC(=O)OC[C@H](COP(=O)([O-])OCC[N+](C)(C)C)OC(=O)CCCCCCCCCCCCCCC [DPPC, dipalamitoyl phosphatidylcholine]",Km,tLRAT [2],1.4 µM
CC1=C(/C=C/C(C)=C/C=C\C(C)=C\CO)C(C)(C)CCC1 [11-cis-retinol],substrate preference in tLRAT/mRPE65 mediated esterification (palmitoylation),tLRAT [3],superior substrate
same,effect of pretreatment on 11-cis-retinol synthesis,[4],distinct lag period before product synthesis occurs
